Laboratory results as given in PMC6834760 (2019).
One block for each compound: values may come before it.

Test system: Apt(ATP) (DNA, aptamer) TCTCTCACCTGGGGGAGTATTGCGGAGGAAGGT
Test: FAM fluorescence quenching titration
Details: 100 mM NaCl, 5 mM MgCl2, 20 mM Tris-HCl, pH 7.4, 66.7 nM aptamer

binding (35.7% quenching at about 330 μM): weak
Structure (SMILES): Nc1ccn([C@@H]2O[C@H](COP(=O)(O)OP(=O)(O)OP(=O)(O)O)[C@@H](O)[C@H]2O)c(=O)n1

binding (18.6% quenching at about 330 μM): weak
Structure (SMILES): Nc1nc2c(ncn2[C@@H]2O[C@H](COP(=O)(O)OP(=O)(O)OP(=O)(O)O)[C@@H](O)[C@H]2O)c(=O)[nH]1

binding (67.1% quenching at about 0.33 mM ATP): yes
Structure (SMILES): Nc1ncnc2c1ncn2[C@@H]1O[C@H](COP(=O)(O)OP(=O)(O)OP(=O)(O)O)[C@@H](O)[C@H]1O

binding (weaker quenching than ATP, up to about 330 μM): weak
Structure (SMILES): O=c1ccn([C@@H]2O[C@H](COP(=O)(O)OP(=O)(O)OP(=O)(O)O)[C@@H](O)[C@H]2O)c(=O)[nH]1
